{
  "source": "patent US20060062758A1",
  "about": "“Tight junction modulator peptide PN159 for enhanced mucosal delivery of therapeutic compounds” (Nastech Pharmaceutical Comapny Inc., priority 2004, published 2006)",
  "test_system": "EpiAirway™ Cell Membrane (mucosal epithelial cell layer)",
  "experiment": "LDH assay (cytotoxicity), in vitro epithelial tissue model",
  "format": "cell-based",
  "procedure": "Repeated freeze-thaw cycles are to be avoided.\nThe amount of cell death was assayed by measuring the loss of lactate dehydrogenase (LDH) from the cells using a CytoTox 96 Cytoxicity Assay Kit (Promega Corp., Madison, Wis.). Fifty microliters of sample was loaded into a 96-well assay plates. Fresh, cell-free culture medium was used as a blank. 50 μl of substrate solution was added to each well and the plates incubated for 30 minutes at room temperature in the dark. Following incubation, 50 μl of stop solution was added to each well and the plates read on an optical density plate reader at 490 nm.\nThe formulation pH was fixed at 4.5.",
  "data": [
    {"smiles": "CC(C)C[C@H](NC(=O)[C@H](C)NC(=O)[C@H](CCCCN)NC(=O)[C@H](CC(C)C)NC(=O)[C@H](C)NC(=O)[C@H](CC(C)C)NC(=O)[C@H](CCCCN)NC(=O)[C@H](CC(C)C)NC(=O)[C@H](C)NC(=O)[C@H](CC(C)C)NC(=O)[C@@H](N)CCCCN)C(=O)N[C@@H](CCCCN)C(=O)N[C@@H](C)C(=O)N[C@@H](C)C(=O)N[C@@H](CC(C)C)C(=O)N[C@@H](CCCCN)C(=O)N[C@@H](CC(C)C)C(=O)N[C@@H](C)C(N)=O", "note": "[PN159]", "values": [
      {"measurement": "cytotoxicity (LDH)", "setting": "Example 2, PTH study, PN159 25-100 μM", "value": "no significant cytotoxicity"},
      {"measurement": "cytotoxicity as measured by LDH", "setting": "in the presence of PN159 and galantamine lactate", "value": "low"}
    ]}
  ]
}
